Experimental data published in PubChem BioAssay AID2060895 (Molecular Pharmacology Branch, DTP, NCI, 2025).

Test system: PDC 899932-113-R3-J6 complex spheroid viability
Assay: Anticancer human tumor 899932-113-R3-J6-PDC patient-derived melanoma cell line growth inhibition [RAS]
Settings: for IC50: curve of first compound; for viability, T/C: stronger effect = lower value
Summary of the method: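 Multi-cell-type spheroids: tumor cells plus HUVEC endothelial cells and mesenchymal stem cells. RAS-pathway inhibitors were combined with targeted agents, each dosed in half-log steps down from clinical Cmax, or from 10 microM when Cmax was unknown.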
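Throughout, for viability, T/C: spheroids exposed to agents for seven days before readout; 100% = DMSO vehicle control wells.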

SMILES: CCc1c2c(nc3ccc(O)cc13)-c1cc3c(c(=O)n1C2)COC(=O)[C@]3(O)CC + CCn1c(-c2cc(N3CCN(C)CC3)cnc2C(C)OC)c2c3cc(ccc31)-c1csc(n1)CC(NC(=O)C1CC1C)C(=O)N1CCCC(N1)C(=O)OCC(C)(C)C2
- IC50 (second compound 0.000949 µM): 2000 pM
- IC50 (second compound 0.003 µM): < 949 pM
- IC50 (second compound 0.00949 µM): < 949 pM
- IC50 (second compound 0.03 µM): < 949 pM
- IC50 (second compound 0.0949 µM): < 949 pM
- IC50 (second compound 0.3 µM): < 949 pM
- viability, T/C (second compound 0.000949 µM, first compound 0.000949 µM): 63.8%
- viability, T/C (second compound 0.000949 µM, first compound 0.003 µM): 39.8%
- viability, T/C (second compound 0.000949 µM, first compound 0.00949 µM): 36%
- viability, T/C (second compound 0.000949 µM, first compound 0.03 µM): 26.9%
- viability, T/C (second compound 0.000949 µM, first compound 0.0949 µM): 22.6%
- viability, T/C (second compound 0.000949 µM, first compound 0.3 µM): 23%
- viability, T/C (second compound 0.003 µM, first compound 0.000949 µM): 31.1%
- viability, T/C (second compound 0.003 µM, first compound 0.003 µM): 24.2%
- viability, T/C (second compound 0.003 µM, first compound 0.00949 µM): 16.4%
- viability, T/C (second compound 0.003 µM, first compound 0.03 µM): 16.1%
- viability, T/C (second compound 0.003 µM, first compound 0.0949 µM): 13.4%
- viability, T/C (second compound 0.003 µM, first compound 0.3 µM): 14%
- viability, T/C (second compound 0.00949 µM, first compound 0.000949 µM): 3.79%
- viability, T/C (second compound 0.00949 µM, first compound 0.003 µM): 3.32%
- viability, T/C (second compound 0.00949 µM, first compound 0.00949 µM): 3.11%
- viability, T/C (second compound 0.00949 µM, first compound 0.03 µM): 3.28%
- viability, T/C (second compound 0.00949 µM, first compound 0.0949 µM): 3.1%
- viability, T/C (second compound 0.00949 µM, first compound 0.3 µM): 3.34%
- viability, T/C (second compound 0.03 µM, first compound 0.000949 µM): 2.49%
- viability, T/C (second compound 0.03 µM, first compound 0.003 µM): 2.47%
- viability, T/C (second compound 0.03 µM, first compound 0.00949 µM): 2.92%
- viability, T/C (second compound 0.03 µM, first compound 0.03 µM): 2.25%
- viability, T/C (second compound 0.03 µM, first compound 0.0949 µM): 2.41%
- viability, T/C (second compound 0.03 µM, first compound 0.3 µM): 2.31%
- viability, T/C (second compound 0.0949 µM, first compound 0.000949 µM): 2.12%
- viability, T/C (second compound 0.0949 µM, first compound 0.003 µM): 2.87%
- viability, T/C (second compound 0.0949 µM, first compound 0.00949 µM): 2.12%
- viability, T/C (second compound 0.0949 µM, first compound 0.03 µM): 2.27%
- viability, T/C (second compound 0.0949 µM, first compound 0.0949 µM): 1.31%
- viability, T/C (second compound 0.0949 µM, first compound 0.3 µM): 1.12%
- viability, T/C (second compound 0.3 µM, first compound 0.000949 µM): 1.75%
- viability, T/C (second compound 0.3 µM, first compound 0.003 µM): 2.65%
- viability, T/C (second compound 0.3 µM, first compound 0.00949 µM): 2.22%
- viability, T/C (second compound 0.3 µM, first compound 0.03 µM): 1.86%
- viability, T/C (second compound 0.3 µM, first compound 0.0949 µM): 1.47%
- viability, T/C (second compound 0.3 µM, first compound 0.3 µM): 1.58%
